Data taken from US11596639B2, “Substituted indole Mcl-1 inhibitors” (Vanderbilt University, priority 2016, dated 2023).
Read-outs that look alike come from different tables or passages of the source.

Experiments:
[1] = tested on: H929 human cancer cell lines; assay: Cellular viability / proliferation (Cell TiterGlo, 72 h); type: cell-based
Procedure, shortened: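 Top dose 50 μM, serially diluted 2-fold, applied one day after seeding (1,000 cells/well, 10% FBS), DMSO below 1%.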

[2] = target: Mcl-1 (Homo sapiens (Human), UniProt Q07820); assay: Fluorescence polarization anisotropy (FPA) competition assay, FITC-Bak or FITC-Bim BH3 peptide; type: binding; conditions: read-out: Ki for Inhibition of Mcl-1 by FPA assay
[3] = Homo sapiens, NCI-H929, 72 h, read-out: GI50 on cellular proliferation of H929 human cancer cell lines, H929 cells, 72 h, Cell TiterGlo, 10% FBS
[4] = H929 cells, 72 h, Cell TiterGlo, 10% FBS, read-out: GI50 on cellular proliferation of H929 human cancer cell lines

Mcl-1, sequence (Q07820 172-327): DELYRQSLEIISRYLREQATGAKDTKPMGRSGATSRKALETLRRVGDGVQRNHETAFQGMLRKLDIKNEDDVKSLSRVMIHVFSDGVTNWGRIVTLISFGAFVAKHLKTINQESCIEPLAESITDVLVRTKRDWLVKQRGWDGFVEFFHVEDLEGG

| Compound | GI50 [1, 3] [µM] | Ki [2] [µM] | GI50 [1, 4] [µM] |
| --- | --- | --- | --- |
| Cc1cc(OCCCc2c3n(c4c(-c5c(C)nn(C)c5C)c(Cl)ccc24)[C@H](C)CN(c2ccnc4c2cc(C(=O)O)n4C)C3=O)cc(C)c1Cl [Example 169, (R)-4-(7-chloro-10-(3-(4-chloro-3,5-dimethylphenoxy)propyl)-4-methyl-1-oxo-6-(1,3,5-trimethyl-1H-pyrazol-4-yl)-3,4-dihydropyrazino[1,2-a]indol-2(1H)-yl)-1-methyl-1H-pyrrolo[2,3-b]pyridine-2-carboxylic acid] | 2.6 | < 0.001 | – |
| Cc1cc(OCCCc2c3n(c4c(-c5c(C)nn(C)c5C)c(Cl)ccc24)[C@H](C)CN(c2cc(OCc4ccccc4)cc4c2cc(C(=O)O)n4C)C3=O)cc(C)c1Cl [Example 310, (M, R)-6-(benzyloxy)-4-(7-chloro-10-(3-(4-chloro-3,5-dimethylphenoxy)propyl)-4-methyl-1-oxo-6-(1,3,5-trimethyl-1H-pyrazol-4-yl)-3,4-dihydropyrazino[1,2-a]indol-2(1H)-yl)-1-methyl-1H-indole-2-carboxylic acid] | – | 0.0015 | 8.9 |
| Cc1cc(OCCCc2c3n(c4c(-c5c(C)nn(C)c5C)c(Cl)ccc24)[C@H](C)CN(c2cccc4cc(C(=O)O)cnc24)C3=O)cc(C)c1Cl [Example 105, (R)-8-(7-Chloro-10-(3-(4-chloro-3,5-dimethylphenoxy)propyl)-4-methyl-1-oxo-6-(1,3,5-trimethyl-1H-pyrazol-4-yl)-3,4-dihydropyrazino[1,2-a]indol-2(1H)-yl)quinoline-3-carboxylic acid] | 0.27 | < 0.001 | – |
| Cc1cc(OCCCc2c3n(c4c(-c5c(C)nn(C)c5C)c(Cl)ccc24)[C@H](C)CN(c2cn(C)c4c(-c5nnn(C)n5)cccc24)C3=O)cc(C)c1Cl [Example 362, (R)-7-Chloro-10-(3-(4-chloro-3,5-dimethylphenoxy)propyl)-4-methyl-2-(1-methyl-7-(2-methyl-2H-tetrazol-5-yl)-1H-indol-3-yl)-6-(1,3,5-trimethyl-1H-pyrazol-4-yl)-3,4-dihydropyrazino[1,2-a]indol-1(2H)-one] | 0.97 | 0.0017 | – |
| Cc1cc(OCCCc2c3n(c4c(-c5c(C)nn(C)c5C)c(Cl)ccc24)[C@H](C)CN(c2cn(C)c4cc(Cl)c(C(=O)O)cc24)C3=O)cc(C)c1Cl [Example 365, (R)-6-Chloro-3-(7-chloro-10-(3-(4-chloro-3,5-dimethylphenoxy)propyl)-4-methyl-1-oxo-6-(1,3,5-trimethyl-1H-pyrazol-4-yl)-3,4-dihydropyrazino[1,2-a]indol-2(1H)-yl)-1-methyl-1H-indole-5-carboxylic acid] | 2 | 0.0017 | – |
| Cc1cc(OCCCc2c3n(c4c(-c5c(C)nn(C)c5C)c(Cl)ccc24)[C@H](C)CN(c2cn(C)c4ccc(-c5nnco5)cc24)C3=O)cc(C)c1Cl [Example 346, (R)-7-Chloro-10-(3-(4-chloro-3,5-dimethylphenoxy)propyl)-4-methyl-2-(1-methyl-5-(1,3,4-oxadiazol-2-yl)-1H-indol-3-yl)-6-(1,3,5-trimethyl-1H-pyrazol-4-yl)-3,4-dihydropyrazino[1,2-a]indol-1(2H)-one] | 1.6 | 0.0051 | – |
| Cc1cc(OCCCc2c3n(c4c(-c5c(C)nn(C)c5C)c(Cl)ccc24)CCCN(c2cccc4c(C(=O)O)nn(C)c24)C3=O)cc(C)c1Cl [Example 13, 7-[8-Chloro-11-[3-(4-chloro-3,5-dimethyl-phenoxy)propyl]-1-oxo-7-(1,3,5-trimethylpyrazol-4-yl)-4,5-dihydro-3H-[1,4]diazepino[1,2-a]indol-2-yl]-1-methyl-indazole-3-carboxylic acid] | 4.5 | < 0.001 | – |
| Cc1cc(OCCCc2c3n(c4c(-c5c(C)nn(C)c5C)c(Cl)ccc24)[C@H](C)CN(c2cn(C)c4ccc(-c5nnn[nH]5)cc24)C3=O)cc(C)c1Cl [Example 251, (R)-7-Chloro-10-(3-(4-chloro-3,5-dimethylphenoxy)propyl)-4-methyl-2-(1-methyl-5-(1H-tetrazol-5-yl)-1H-indol-3-yl)-6-(1,3,5-trimethyl-1H-pyrazol-4-yl)-3,4-dihydropyrazino[1,2-a]indol-1(2H)-one] | 0.25 | < 0.001 | – |
| CC(=O)N1CCN(S(=O)(=O)c2ccc3c(c2)c(N2C[C@@H](C)n4c(c(CCCOc5cc(C)c(Cl)c(C)c5)c5ccc(Cl)c(-c6c(C)nn(C)c6C)c54)C2=O)cn3C)CC1 [Example 278, (R)-2-(5-((4-acetylpiperazin-1-yl)sulfonyl)-1-methyl-1H-indol-3-yl)-7-chloro-10-(3-(4-chloro-3,5-dimethylphenoxy)propyl)-4-methyl-6-(1,3,5-trimethyl-1H-pyrazol-4-yl)-3,4-dihydropyrazino[1,2-a]indol-1(2H)-one] | 1.5 | 0.0054 | – |
| Cc1cc(OCCCc2c3n(c4c(-c5c(C)nn(C)c5C)c(Cl)ccc24)[C@H](C)CN(c2cccc4c(C(=O)O)cn(Cc5ccccn5)c24)C3=O)cc(C)c1Cl [Example 468, (R)-7-(7-Chloro-10-(3-(4-chloro-3,5-dimethylphenoxy)propyl)-4-methyl-1-oxo-6-(1,3,5-trimethyl-1H-pyrazol-4-yl)-3,4-dihydropyrazino[1,2-a]indol-2(1H)-yl)-1-(pyridin-2-ylmethyl)-1H-indole-3-carboxylic acid] | 0.26 | < 0.001 | – |
| Cc1cc(N2CCCn3c(c(CCCOc4cc(C)c(Cl)c(C)c4)c4ccc(Cl)c(-c5c(C)ncnc5C)c43)C2=O)c2c(c1)cc(C(=O)O)n2C [Example 399, 7-(8-Chloro-11-(3-(4-chloro-3,5-dimethylphenoxy)propyl)-7-(4,6-dimethylpyrimidin-5-yl)-1-oxo-4,5-dihydro-1H-[1,4]diazepino[1,2-a]indol-2(3H)-yl)-1,5-dimethyl-1H-indole-2-carboxylic acid] | 0.21 | 0.0024 | – |
| Cc1cccc(Cn2c(C(=O)O)cc3cccc(N4C[C@@H](C)n5c(c(CCCOc6cc(C)c(Cl)c(C)c6)c6ccc(Cl)c(-c7c(C)nn(C)c7C)c65)C4=O)c32)n1 [Example 381, (R)-7-(7-Chloro-10-(3-(4-chloro-3,5-dimethylphenoxy)propyl)-4-methyl-1-oxo-6-(1,3,5-trimethyl-1H-pyrazol-4-yl)-3,4-dihydropyrazino[1,2-a]indol-2(1H)-yl)-1-((6-methylpyridin-2-yl)methyl)-1H-indole-2-carboxylic acid] | 0.25 | 0.0026 | – |
| Cc1cc(OCCCc2c3n(c4c(-c5c(C)nn(C)c5C)c(Cl)ccc24)[C@H](C)CN(c2cn(C)c4ccc(C(=O)N5CCCC5)cc24)C3=O)cc(C)c1Cl [Example 290, (4R)-7-chloro-10-[3-(4-chloro-3,5-dimethyl-phenoxy)propyl]-4-methyl-2-[1-methyl-5-(pyrrolidine-1-carbonyl)indol-3-yl]-6-(1,3,5-trimethylpyrazol-4-yl)-3,4-dihydropyrazino[1,2-a]indol-1-one] | 5.3 | 0.012 | – |
| Cc1cc(OCCCc2c3n(c4c(-c5c(C)nn(C)c5C)c(Cl)ccc24)[C@H](C)CN(c2cn(C)c4cc(C(N)=O)ccc24)C3=O)cc(C)c1Cl [Example 277, 3-[(4R)-7-chloro-10-[3-(4-chloro-3,5-dimethyl-phenoxy)propyl]-4-methyl-1-oxo-6-(1,3,5-trimethylpyrazol-4-yl)-3,4-dihydropyrazino[1,2-a]indol-2-yl]-1-methyl-indole-6-carboxamide] | 1.4 | 0.0066 | – |
| (R)-3-(7-chloro-10-(3-(4-chloro-3,5-dimethylphenoxy)propyl)-6-(3,5-dimethyl-1-((1-methylpiperidin-4-yl)methyl)-1H-pyrazol-4-yl)-4-methyl-1-oxo-3,4-dihydropyrazino[1,2-a]indol-2(1H)-yl)-1-methyl-1H-indole-5-carboxylic acid [Example 146] | – | 0.004 | 2.4 |
| Cc1cc(OCCCc2c3n(c4c(-c5c(C)nn(C)c5C)c(Cl)ccc24)[C@H](C)CN(c2cn(C)c4c(C#N)cc(C(=O)O)cc24)C3=O)cc(C)c1Cl [Example 244, (R)-3-(7-Chloro-10-(3-(4-chloro-3,5-dimethylphenoxy)propyl)-4-methyl-1-oxo-6-(1,3,5-trimethyl-1H-pyrazol-4-yl)-3,4-dihydropyrazino[1,2-a]indol-2(1H)-yl)-7-cyano-1-methyl-1H-indole-5-carboxylic acid] | 0.4 | < 0.001 | – |
| Cc1cc(OCCCc2c3n(c4c(-c5c(C)nn(C)c5C)c(Cl)ccc24)[C@H](C)CN(c2cc(C(=O)O)cc4[nH]ccc24)C3=O)cc(C)c1Cl [Example 100, (R)-4-(7-chloro-10-(3-(4-chloro-3,5-dimethylphenoxy)propyl)-4-methyl-1-oxo-6-(1,3,5-trimethyl-1H-pyrazol-4-yl)-3,4-dihydropyrazino[1,2-a]indol-2(1H)-yl)-1H-indole-6-carboxylic acid] | 5.8 | < 0.001 | – |
| CC[C@@H]1Cn2c(c(CCCOc3cc(C)c(Cl)c(C)c3)c3ccc(Cl)c(-c4c(C)nn(C)c4C)c32)C(=O)N1c1cc(C(=O)O)c2c(ccn2C)c1 [Example 41, (R)-5-(7-chloro-10-(3-(4-chloro-3,5-dimethylphenoxy)propyl)-3-ethyl-1-oxo-6-(1,3,5-trimethyl-1H-pyrazol-4-yl)-3,4-dihydropyrazino[1,2-a]indol-2(1H)-yl)-1-methyl-1H-indole-7-carboxylic acid] | 1.2 | 0.0018 | – |
| Cc1cc(OCCCc2c3n(c4c(-c5c(C)nn(C)c5C)c(Cl)ccc24)[C@H](C)CN(c2cn(C)c4ccc(C(=O)NCc5cccnc5)cc24)C3=O)cc(C)c1Cl [Example 287, 3-[(4R)-7-chloro-10-[3-(4-chloro-3,5-dimethyl-phenoxy)propyl]-4-methyl-1-oxo-6-(1,3,5-trimethylpyrazol-4-yl)-3,4-dihydropyrazino[1,2-a]indol-2-yl]-1-methyl-N-(3-pyridylmethyl)indole-5-carboxamide] | 1.6 | 0.003 | – |
